Test results as given in US20250215039A1, “NUCLEOSIDES FOR TREATING CANCER” (PRIMEFOUR THERAPEUTICS, INC., priority 2022, published 2025).
Like-named read-outs stand apart in the source and are kept apart here.

Test system: cancer cell lines
Assay: Cancer cell proliferation activity (CellTiterGlo, 72 h)
Format: cell-based
Settings: 72 h, 72 h, read-out: IC50 cell proliferation
Outline: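 Readout is CellTiterGlo luminescence after 72 h compound exposure (0.1% DMSO final), started one day post-seeding, at 37 °C.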

Nc1nc(F)nc2c1ncn2[C@@H]1O[C@H](CO)[C@@H](O)[C@@H]1O [compound 170, (2R,3S,4S,5R)-2-(6-amino-2-fluoro-9H-purin-9-yl)-5-(hydroxymethyl)tetrahydrofuran-3,4-diol]
IC50 (5637 (bladder)): 2.4 µM | IC50 (CLS439 (bladder)): 45.5 µM | IC50 (HS729 (muscle)): 3.52 µM | IC50 (J82 (bladder)): 19.4 µM | IC50 (JAR (placenta)): 45.9 µM | IC50 (MT3 (breast)): 2 µM | IC50 (PANCI (pancreas)): 16.6 µM | IC50 (PC3 (prostate)): 2.54 µM | IC50 (RD (muscle)): 11.9 µM | IC50 (T24 (bladder)): 5.89 µM | IC50 (Homo sapiens, 22Rv1, 72 h, 22RV1 (prostate)): 79.5 µM | IC50 (Homo sapiens, 786-0, 72 h, 786O (kidney)): 29.6 µM | IC50 (Homo sapiens, A204, 72 h, A204 (muscle)): 0.53 µM | IC50 (Homo sapiens, A549, 72 h, A549 (lung)): 8.86 µM | IC50 (Homo sapiens, A673, 72 h, A673 (bone)): 10.8 µM | IC50 (Homo sapiens, A2780, 72 h, A2780 (ovary)): 7.16 µM | IC50 (Homo sapiens, A-375, 72 h, A375 (skin)): 9.75 µM | IC50 (Homo sapiens, A-431, 72 h, A431 (skin)): 11.1 µM | IC50 (Homo sapiens, ACHN, ACHN (kidney)): 12.7 µM | IC50 (Homo sapiens, ASPC1, 72 h, ASPC1 (pancreas)): 7.85 µM | IC50 (Homo sapiens, BT-20, 72 h, BT20 (breast)): 38.2 µM | IC50 (Homo sapiens, BXPC-3, 72 h, BXPC3 (pancreas)): 6.87 µM | IC50 (Homo sapiens, C-33-A, C33A (endometrial)): 9.56 µM | IC50 (Homo sapiens, CAKI-1, 72 h, CAKI1 (kidney)): 2.46 µM | IC50 (Homo sapiens, COLO 205, 72 h, COLO205 (colon)): 2.8 µM | IC50 (Homo sapiens, COLO-678, 72 h, COLO678 (colon)): 21.8 µM | IC50 (Homo sapiens, Ca-Ski, CASKI (endometrial)): 107 µM | IC50 (Homo sapiens, Caco-2, 72 h, CACO2 (colon)): 49.2 µM | IC50 (Homo sapiens, Calu-6, 72 h, CALU6 (lung)): 17.3 µM | IC50 (Homo sapiens, DLD-1, 72 h, DLD1 (colon)): 11.4 µM | IC50 (Homo sapiens, DU-145, 72 h, DU145 (prostate)): 5.44 µM | IC50 (Homo sapiens, EFO-21, 72 h, EFO21 (ovary)): 7.34 µM | IC50 (Homo sapiens, EJ-28, 72 h, EJ28 (bladder)): 10.4 µM | IC50 (Homo sapiens, Granta-519, 72 h, GRANTA-519 (hematological)): 1.66 µM | IC50 (Homo sapiens, HCT-15, 72 h, HCT15 (colon)): 12.4 µM | IC50 (Homo sapiens, HCT-116, 72 h, HCT116 (colon)): 5.26 µM | IC50 (Homo sapiens, HEK293, 72 h, HEK293 (kidney)): 35.2 µM | IC50 (Homo sapiens, HL-60, 72 h, HL-60 (hematological)): 2.05 µM | IC50 (Homo sapiens, HT-29, 72 h, HT29 (colon)): 18.4 µM | IC50 (Homo sapiens, HT-1080, 72 h, HT1080 (connective tissue)): 4.09 µM | IC50 (Homo sapiens, HeLa, HELA (endometrial)): 6.72 µM | IC50 (Homo sapiens, HepG2, 72 h, HEPG2 (liver)): 15.3 µM | IC50 (Homo sapiens, Hs-578T, HS578T (breast)): 36.6 µM | IC50 (Homo sapiens, IGROV-1, 72 h, IGROV1 (ovary)): 13.6 µM | IC50 (Homo sapiens, IMR-90, 72 h, IMR90 (lung)): 11.8 µM | IC50 (Homo sapiens, JEG-3, 72 h, JEG3 (placenta)): 56.8 µM | IC50 (Homo sapiens, JIMT-1, 72 h, JIMT1 (breast)): 1.66 µM | IC50 (Homo sapiens, K562, 72 h, K-562 (hematological)): 41.8 µM | IC50 (Homo sapiens, Kasumi 1, 72 h, KASUMI-1 (hematological)): 0.55 µM | IC50 (Homo sapiens, L-363, 72 h, L-363 (hematological)): 33 µM | IC50 (Homo sapiens, LoVo, LOVO (colon)): 9.73 µM | IC50 (Homo sapiens, MCF7, 72 h, MCF7 (breast)): 27.2 µM | IC50 (Homo sapiens, MDA-MB-231, 72 h, MDAMB231 (breast)): 2.88 µM | IC50 (Homo sapiens, MDA-MB-435, 72 h, MDAMB435 (skin)): 14.2 µM | IC50 (Homo sapiens, MDA-MB-436, 72 h, MDAMB436 (breast)): 3.35 µM | IC50 (Homo sapiens, MDA-MB-468, 72 h, MDAMB468 (breast)): 23.6 µM | IC50 (Homo sapiens, MG-63, 72 h, MG63 (bone)): 15.5 µM | IC50 (Homo sapiens, MHH-ES-1, 72 h, MHHES1 (bone)): 5.05 µM | IC50 (Homo sapiens, MIA PaCa-2, 72 h, MIAPACA2 (pancreas)): 35.4 µM | IC50 (Homo sapiens, MINO, MINO (hematological)): 0.61 µM | IC50 (Homo sapiens, MV4-11, 72 h, MV4-11 (hematological)): 5.77 µM | IC50 (Homo sapiens, NCI-H23, 72 h, NCI-H23 (lung)): 8.19 µM | IC50 (Homo sapiens, NCI-H82, 72 h, NCIH82 (lung)): 21.3 µM | IC50 (Homo sapiens, NCI-H292, 72 h, NCIH292 (lung)): 8.01 µM | IC50 (Homo sapiens, NCI-H460, 72 h, NCIH460 (lung)): 32.5 µM | IC50 (Homo sapiens, OVCAR-3, 72 h, OVCAR3 (ovary)): 1.13 µM | IC50 (Homo sapiens, OVCAR-4, 72 h, OVCAR4 (ovary)): 16.3 µM | IC50 (Homo sapiens, PLC-PRF-5, 72 h, PLCPRF5 (liver)): 20.1 µM | IC50 (Homo sapiens, Panc1005, 72 h, PANC1005 (pancreas)): 5.7 µM | IC50 (Homo sapiens, Ramos, RAMOS (hematological)): 5.1 µM | IC50 (Homo sapiens, SAOS-2, 72 h, SAOS2 (bone)): 0.45 µM | IC50 (Homo sapiens, SF-268, 72 h, SF268 (brain)): 16.3 µM | IC50 (Homo sapiens, SF-295, 72 h, SF295 (brain)): 86.5 µM | IC50 (Homo sapiens, SK-BR-3, 72 h, SKBR3 (breast)): 1.58 µM | IC50 (Homo sapiens, SK-HEP1, 72 h, SKHEP1 (liver)): 5.36 µM | IC50 (Homo sapiens, SK-LMS-1, 72 h, SKLMS1 (uterus)): 44.3 µM | IC50 (Homo sapiens, SK-MEL-5, 72 h, SKMEL5 (skin; SKMELS [sic] in Table 9E)): 15.9 µM | IC50 (Homo sapiens, SK-MEL-28, 72 h, SKMEL28 (skin)): 11.1 µM | IC50 (Homo sapiens, SK-N-AS, SKNAS (brain)): 29.5 µM | IC50 (Homo sapiens, SK-N-SH, SKNSH (brain)): 22.2 µM | IC50 (Homo sapiens, SK-OV-3, 72 h, SKOV3 (ovary)): 4.22 µM | IC50 (Homo sapiens, SNB-75, 72 h, SNB75 (brain)): 50.6 µM | IC50 (Homo sapiens, SU-DHL10, 72 h, SU-DHL-10 (hematological)): 5.61 µM | IC50 (Homo sapiens, SU-DHL-6, 72 h, SU-DHL-6 (hematological)): 38.6 µM | IC50 (Homo sapiens, SW-620, 72 h, SW620 (colon)): 17.4 µM | IC50 (Homo sapiens, TE-671, 72 h, TE671 (muscle)): 11.1 µM | IC50 (Homo sapiens, THP-1, 72 h, THP-1 (hematological)): 5.86 µM | IC50 (Homo sapiens, U2OS, U20S (bone; U2OS in Table 9E)): 13.8 µM | IC50 (Homo sapiens, U-87 MG, U87MG (brain)): 5.59 µM | IC50 (Homo sapiens, UMUC3, 72 h, UMUC3 (bladder)): 21.6 µM | IC50 (Homo sapiens, UO-31, 72 h, UO31 (kidney)): 7.43 µM | IC50 (Homo sapiens, WSU-NHL, WSU-NHL (hematological)): 1.91 µM | IC50 (NCI-H358M, NCIH358M (lung)): 0.29 µM | IC50 (PBMC, PBMC (hematological)): 0.29 µM | IC50 (RD-ES, RDES (bone)): 35.3 µM
